Data taken from the supplement of paper PMC10307832.

How the values were obtained:
Assay in all cases: relative viability (nuclei count vs DMSO), 5 days (fraction); higher = more cells survive
ALW-II-49-7 + AZD7762 = compound: Cc1ccc(C(=O)Nc2cccc(C(F)(F)F)c2)cc1Nc1cncc(C(N)=O)c1 [ALW-II-49-7] + NC(=O)Nc1cc(-c2cccc(F)c2)sc1C(=O)N[C@H]1CCCNC1 [AZD7762] (partner 0.2 µM)
Outline: (§1)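 Medians of duplicate plates are given as relative viability. That measure is the nuclei count in treated wells divided by the count in vehicle wells. Counts were taken on 4× images of lung cancer cell lines in 1536-well plates, 5 days after pin-tool dosing the day after seeding with one drug alone or a fixed anchor-drug dose plus five library-drug doses (not always all listed) in √10 steps.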

[1] = compound: Cc1ccc(C(=O)Nc2cccc(C(F)(F)F)c2)cc1Nc1cncc(C(N)=O)c1 [ALW-II-49-7] + CC(=O)c1c(C)c2cnc(Nc3ccc(N4CCNCC4)cn3)nc2n(C2CCCC2)c1=O [Palbociclib] (partner 0.5 µM)
Outline: as §1

XMD13-2 + Lapatinib = compound: C1CC1C(=O)NC2=NNC3=C2C=CC(=C3)C4=CC(=CC=C4)C(=O)NC5CC5 [XMD13-2] + CS(=O)(=O)CCNCc1ccc(-c2ccc3ncnc(Nc4ccc(OCc5cccc(F)c5)c(Cl)c4)c3c2)o1 [Lapatinib] (partner 2 µM)
Outline: as §1

XMD13-2 + Phenformin = compound: C1CC1C(=O)NC2=NNC3=C2C=CC(=C3)C4=CC(=CC=C4)C(=O)NC5CC5 [XMD13-2] + N=C(N)NC(=N)NCCc1ccccc1 [Phenformin] (partner 250 µM)
Outline: as §1

Cell Line | relative viability (ALW-II-49-7 + AZD7762; first compound 0.08 µM) | relative viability (ALW-II-49-7 + AZD7762; first compound 0.253 µM) | relative viability (ALW-II-49-7 + AZD7762; first compound 0.8 µM) | relative viability (ALW-II-49-7 + AZD7762; first compound 2.53 µM) | relative viability (ALW-II-49-7 + AZD7762; first compound 8 µM) | relative viability ([1]; first compound 0.08 µM) | relative viability ([1]; first compound 0.253 µM) | relative viability ([1]; first compound 0.8 µM) | relative viability ([1]; first compound 2.53 µM) | relative viability ([1]; first compound 8 µM) | relative viability (XMD13-2 + Lapatinib; first compound 0.05 µM) | relative viability (XMD13-2 + Lapatinib; first compound 0.1581 µM) | relative viability (XMD13-2 + Lapatinib; first compound 0.5 µM) | relative viability (XMD13-2 + Lapatinib; first compound 1.581 µM) | relative viability (XMD13-2 + Lapatinib; first compound 5 µM) | relative viability (XMD13-2 + Phenformin; first compound 0.05 µM) | relative viability (XMD13-2 + Phenformin; first compound 0.1581 µM) | relative viability (XMD13-2 + Phenformin; first compound 0.5 µM) | relative viability (XMD13-2 + Phenformin; first compound 1.581 µM) | relative viability (XMD13-2 + Phenformin; first compound 5 µM)
NCI-H460 | 0.567 | 0.863 | 0.663 | 0.665 | 0.456 | 0.171 | 0.185 | 0.126 | 0.136 | 0.111 | 1.23 | 0.925 | 1.27 | 0.908 | 0.0203 | 0.589 | 0.537 | 0.57 | 0.486 | 0.542
HCC-827 | 0.208 | 0.241 | 0.187 | 0.183 | 0.19 | 0.44 | 0.465 | 0.466 | 0.367 | 0.391 | 0.19 | 0.2 | 0.172 | 0.243 | 0.2 | 0.443 | 0.366 | 0.405 | 0.478 | 0.392
NCI-H322M | 0.557 | 0.584 | 0.484 | 0.698 | 0.481 | 0.439 | 0.453 | 0.486 | 0.534 | 0.505 | 0.641 | 0.528 | 0.593 | 0.605 | 0.724 | 0.858 | 0.84 | 0.774 | 0.782 | 0.905
NCI-H1666 | 0.858 | 0.855 | 0.822 | 0.839 | 0.77 | 0.663 | 0.655 | 0.692 | 0.67 | 0.666 | 0.63 | 0.666 | 0.979 | 0.719 | 0.441 | 0.544 | 0.6 | 0.595 | 0.546 | 0.593
NCI-H1793 | 0.412 | 0.436 | 0.487 | 0.417 | 0.289 | 0.323 | 0.278 | 0.29 | 0.291 | 0.33 | 0.885 | 0.609 | 1.03 | 0.601 | 0.826 | 0.436 |  | 0.409 | 0.393 | 0.36
NCI-H1437 | 1.02 | 1.15 | 1.01 | 0.99 | 0.873 | 0.288 | 0.318 | 0.286 | 0.34 | 0.315 | 0.911 | 0.849 | 0.858 | 0.793 | 0.683 | 0.297 | 0.305 | 0.299 | 0.311 | 0.341
NCI-H358 | 0.51 | 0.711 | 0.405 |  | 0.524 | 0.128 | 0.13 | 0.141 | 0.133 | 0.117 | 0.566 | 0.463 | 0.471 | 0.404 | 0.322 | 0.358 | 0.323 | 0.336 | 0.351 | 0.304
NCI-H1792 | 0.836 | 0.621 | 0.591 | 0.745 | 0.454 | 0.564 | 0.454 | 0.471 | 0.522 | 0.548 | 1.1 | 0.873 | 0.951 | 0.777 | 1.06 | 0.29 | 0.306 | 0.259 | 0.324 | 0.352
